According to patent US5955508A, “Method for the enhancement of lymphocyte activity against opportunistic microbial pathogens” (priority 1996, dated 1999):
Values joined by “and” are separate entries in the source; they are usually repeats but may differ in a detail not shown here. Equal entries are not always repeated. “Also recorded” adds a separate entry of the source.

Experiments:
[1] = whether by intravenous or oral administration; cited from earlier work
Candida albicans = assay: Lymphocyte mediated antifungal activity against Candida albicans (growth inhibition), lymphocytes from HIV+ patients; assay type: cell-based; details: for mean change in antifungal activity: 50 ng/ml d-FEN vs no d-FEN; for Antifungal Units, d-FEN: one line per patient and Mean + SEM
Source text: (§1) The T lymphocytes analyzed were obtained from 20 HIV+ patients (9 females and 11 males, 25-48 years of age). The patients were diagnosed as being HIV+ within the past 0.5-9 years, and 15 are being treated with antiviral drugs. The subjects' study identification number (indicates the order in which bloods were drawn), CD4+ and CD8+ counts (determined March, 1996, as part of the present study), age, sex, date of diagnosis, and pharmacotherapy are provided in Table 1.
(§2) The patients fell into one of three groups (Groups A, B and C) based on their CD4+ cell counts (the number of T helper cells/μL blood): 8 of the HIV+ patients had normal (or above normal) CD4+ levels (normal range 550-1500/μL); 4 had levels between 200-499/μL; and, 7 had CD4+ counts equal to or below 200/μL. This latter group of patients by definition have AIDS (see Table 41-3 from K. J. Ryan (Ed.), Sherris Medical Microbiology, Third Edition, Appleton & Lange:Norwalk, Conn., 1994, p. 547). These patients, moreover, have had recurrent candidiasis and other opportunistic infections which have become increasingly difficult to manage. All of the patients' CD8+ cell (cytotoxic T lymphocytes) counts were within or above normal range (300-1000/μL). We were unable to obtain enough lymphocytes from one patient (#4) to analyze their antifungal activity.
(§3) The experimental protocol for this project is illustrated in Table A. Note that the cultures were exposed to two doses (5 and 50 ng/ml) of d-FEN in the mitogenesis assays, whereas only one dose (50 ng/ml) was used in the antifungal and cytokine release assays.
Isolation of Peripheral Blood Mononuclear Cells. Forty ml of venous blood were aseptically drawn into sterile 10 ml tubes containing 20 U/ml preservative free heparin, diluted with an equal volume of Hank's Balanced Salt Solution (HBSS), layered over Lymphocyte Separation Medium (LSM, Bionetics, Kensington, Md.), and centrifuged at 1,000×g for 30 min. After centrifugation, the mononuclear cell layer was recovered from the interface and washed twice in HBSS prior to further manipulation and then enumerated microscopically.
Lymphocyte Mediated Antifungal Activity Against Candida albicans: Fungal Culture. C. albicans cultures were stored at 25° C. on Sabouraud's dextrose agar (SDA) (Becton Dickinson and Co., Cockeysville, Md.). Cells used for experimentation were cultured overnight at 37° C. on SDA, collected as isolated colonies, and washed once in HBSS. Yeast cultures were enumerated microscopically. C. albicans were inoculated into RPMI 1640 medium. C. albicans hyphal forms were obtained by incubation at 37° C. with 5% CO2 in RPMI 1640. Inoculum of 2×10^5 yeast cells/ml yield approximately 100% hyphal fragments when incubated for 2 h at 37° C.
Activation of Lymphocytes. Human peripheral blood lymphocytes were placed in culture medium containing 5×10^-5 2-mercaptoethanol (2-ME) at a concentration of 2.0×10^6 cells/ml with d-FEN (50 ng/ml was added on the second day of culture) and 1,500 U/ml IL-2 (Hoffman-La Roche Inc., Nutley, N.J.) in Falcon, Multiwell plates (Becton Dickinson, Lincoln Park, N.J.) for 3 and 4 days. The cells were harvested following incubation at 37° C., overlaid onto LSM and centrifuged at 1,000×g for 20 min. The cells at the interface were washed twice with HBSS prior to assessment of functional activity.
Measurement of the Inhibition of C. albicans Growth. Fungal cells used for experimentation were collected from isolated, overnight colonies on SDA, and washed once in HBSS. Yeast were resuspended to 2×10^5 /ml in RPMI 1640 and 5×10^3 yeast placed in individual wells of 96 well flat bottom plates (Corning Glass Works, #25861, Corning, N.Y.). […]

CD4+ lymphocytes = assay: Con A induced lymphoproliferation of PBMC (CD4+ lymphocytes); assay type: cell-based, human; details: for comparison of 5 ng/ml with 50 ng/ml d-FEN: 5 ng/ml vs 50 ng/ml
Source text: as §1, §2
Peripheral blood (40 ml) was drawn (Mar. 29-30, 1996) from the patients on a "first come, first serve" basis when they arrived at the Ponce Center for Diagnosis and Treatment (Dr. Hiram Valazquez, Medical Director) for their monthly checkup and who volunteered their blood for experimental analysis. In addition, blood was drawn from 4 healthy HIV- volunteers in order to study their lymphoproliferation response to Con A. The lymphocytes were isolated and processed as detailed below.
as §3
Cell Proliferation Analysis. Lymphoid cell suspensions were cultured in microtiter plates (Corning Glass Works, Corning, N.Y.) in the presence of 3.0 μg/ml Con-A (Pharmacia, Uppsala, Sweden) for 3 and 4 days at 37° C. d-FEN (5 and 50 ng/ml) was added the second day of culture. The cells were cultured at 2×10^5 /well in RPMI 1640 with 1% fetal bovine serum. The cells then were pulsed for 6.0 h with 1.0 μCi of [^3 H]-thymidine (DuPont-New England Nuclear Research, Boston, Mass.), harvested, and [^3 H]-thymidine incorporation determined with a liquid scintillation counter. The data are reported as a percent increase in the stimulation in dextrofenfluramine values.
The data were analyzed by a one- or two-way analysis of variance (ANOVA) with repeated measures where appropriate ([…] version 1; Jandel, San Rafael, Calif.). Significant main effects were subjected to post hoc analysis using the Student-Newman Keuls All Pairwise Multiple Comparisons test or the Mann-Whitney U test.
^A The stimulatory effect of dFEN is expressed as a percent increase
in the stimulation index of PBMCs cultured with the two doses of dFEN
versus that cultured without dFEN. The data represent the greatest
stimulation that occurred after the lymphocytes had been in culture for 3
or 4 days. The mitogenic activity of the PBMC (CD4+ lymphocytes) index of
stimulation was calculated as follows: […]

SMILES: CCN[C@@H](C)Cc1cccc(C(F)(F)F)c1 [d-FEN]
- protein binding [1]: about 36%
- mean change in antifungal activity (Candida albicans; Group B): -13%
- mean change in antifungal activity (Candida albicans; Group C (AIDS)): +100%
- patients showing increased antifungal activity (Candida albicans; 50 ng/ml d-FEN, Group A): 7 of the 8
- Antifungal Units, d-FEN (Candida albicans; 50 ng/ml d-FEN, Group A (normal CD4+ HIV+ patients)): 62 Antifungal Units and 84 Antifungal Units and 82 Antifungal Units and 144 Antifungal Units and 31 Antifungal Units and 60 Antifungal Units and 236 Antifungal Units and 95 ± 23 Antifungal Units
- antifungal activity response in words (Candida albicans; 50 ng/ml d-FEN, Group B): mixed response
- Antifungal Units, d-FEN (Candida albicans; 50 ng/ml d-FEN, Group B (CD4+ 200-499/μL)): 16 Antifungal Units and 164 Antifungal Units and 120 Antifungal Units and 75 Antifungal Units and 94 ± 32 Antifungal Units
- patients showing increased antifungal activity (Candida albicans; 50 ng/ml d-FEN, Group C (AIDS)): all 7 of the AIDS patients (Group C) evidenced increased
- Antifungal Units, d-FEN (Candida albicans; 50 ng/ml d-FEN, Group C (AIDS)): 130 Antifungal Units and 321 Antifungal Units and 164 Antifungal Units and 355 Antifungal Units and 307 Antifungal Units and 314 Antifungal Units and 394 Antifungal Units and 284 ± 37 Antifungal Units
- antifungal activity of Group C vs other two groups (Candida albicans; 50 ng/ml d-FEN, one-way ANOVA p<0.001): significantly greater in the presence of d-FEN
- mitogenesis of human controls and AIDS patients vs non-AIDS HIV+ patients (CD4+ lymphocytes; 5 ng/ml d-FEN): greater mitogenesis in the presence of 5 ng/ml d-FEN than the non-AIDS HIV+ patients
- comparison of 5 ng/ml with 50 ng/ml d-FEN (CD4+ lymphocytes): lymphocytes obtained from human control and AIDS subjects respond better in vitro to a low (5 ng/ml) than to a high (50 ng/ml) dose; also recorded: greater lymphoproliferation in AIDS derived lymphocytes than 50 ng/ml
- comparison of 5 ng/ml with 50 ng/ml d-FEN (CD4+ lymphocytes; listed as dextrofenfluramine): more effective than 50 ng/ml
- mitogenesis of non-AIDS HIV+ patients (Groups A+B) vs AIDS group (CD4+ lymphocytes; 50 ng/ml d-FEN): greater mitogenesis than the AIDS group (Group C)
- dose effect, two way ANOVA (CD4+ lymphocytes; 5 vs 50 ng/ml, p=0.15): did not reach significance
- activation at 0.005 µg/mL (CD4+ lymphocytes; Homo sapiens, Lymphocyte, 5 ng/ml d-FEN, Groups A + B (non-AIDS HIV+), Con A, read-out: Increase in Index of Stimulation, Mean ± SEM): 17 ± 8%
- activation at 0.05 µg/mL (CD4+ lymphocytes; Homo sapiens, Lymphocyte, 50 ng/ml d-FEN, Groups A + B (non-AIDS HIV+), Con A, read-out: Increase in Index of Stimulation, Mean ± SEM): 50 ± 8%
- proliferation, AIDS patient #15 (CD4+ lymphocytes; no detectable CD4+ cells): did not show any proliferation
